# Measurements published in US6342319B1, “Nonaqueous electrolyte secondary battery and method of manufacturing negative electrode” (Kabushiki Kaisha Toshiba, priority 1997, dated 2002).
# Assay: Acid dissociation constant pKa of the aromatic compound used as precursor material
row,Structure (SMILES),pKa
1,"O=C(O)c1cc(C(=O)O)c(C(=O)O)cc1C(=O)O [benzene-1,2,4,5-tetracarboxylic acid]",3.5 to 4.5
2,"O=C(O)c1ccc(C(=O)O)c(C(=O)O)c1 [benzene-1,2,4-tricarboxylic acid]",3.5 to 4.5
3,"O=C(O)c1cccc(C(=O)O)c1 [benzene-1,3-dicarboxylic acid]",3.5 to 4.5
4,"O=C(O)c1ccc(C(=O)O)c2c(C(=O)O)ccc(C(=O)O)c12 [naphthalene-1,4,5,8-tetracarboxylic acid]",3.5 to 4.5
5,"O=C(O)c1ccc(C(=O)O)c2ccccc12 [naphthalene-1,4-dicarboxylic acid]",3.5 to 4.5
6,"O=C(O)c1cccc2cccc(C(=O)O)c12 [naphthalene-1,8-dicarboxylic acid]",3.5 to 4.5
7,O=C(O)c1cccc2ccccc12 [naphthalene-1-carboxylic acid],4.2
8,"O=C(O)c1ccc2c3ccc(C(=O)O)c4c(C(=O)O)ccc(c5ccc(C(=O)O)c1c25)c43 [perylene-3,4,9,10-tetracarboxylic acid]",3.5 to 4.5

# Assay: physchem
row,Structure (SMILES),pKa
1,"O=C(O)c1ccccc1C(=O)O [benzene-1,2-dicarboxylic acid]",3.5 to 4.5
2,"O=C(O)c1ccc(C(=O)O)cc1 [benzene-1,4-dicarboxylic acid]",3.5 to 4.5
